From US9138421B2, “Platinum compounds for treating cell proliferative diseases, preparation method and use thereof” (priority 2011, dated 2015) come the findings set out here.

The subject of one data set is lung cancer H292. Kind of data set: MTT cytotoxicity, lung cancer H292. It is filed as cell-based. The settings on record: n = 6. The method, then: (§1) The toxic action of Embodiment platinum containing compounds was observed on tumor cells by MTT colorimetric method. Several kinds of tumor cells in exponential growth phase were prepared into single cell suspension, inoculated on 96 pore plat at the density of 4×10^4/hole, cultivated for 24 hours to enable to adhere to wall with 1640 culture medium containing 10% fetal calf serum (complete medium) at 37° C.; the final culture volume was 100 μl. Cell morphology was observed after culture for 24 hours.

The test system of a further data set is testis cell ST. Kind of data set: MTT cytotoxicity, testis cell ST. The settings on record: n = 6. In kind it is cell-based. The method, then: as §1
A further data set relates to gastric cancer MGC803. Kind of data set: MTT cytotoxicity, gastric cancer MGC803. The settings on record: n = 6. It is filed as cell-based. The method, then: as §1
The next data set has as its system esophagus cancer ECA109. Description: MTT cytotoxicity, esophagus cancer ECA109. In kind it is cell-based. The settings on record: n = 6. The method, then:
as §1

The test system of data set [1] is lung cancer Lewis cell line. Kind of data set: In vivo antitumor activity, lung cancer Lewis in nude mice. The conditions noted are these: 15 mg/kg, every 2 days, 4 times, end 30 days after inoculation.
For data set [2], the system named is Pulmonary epithelial cell BEAS-2B. Description: MTT cytotoxicity, pulmonary epithelial cell BEAS-2B. It is filed as cell-based. The conditions noted are these: n = 6. The method, then: as §1
In another data set the test system is lung cancer Lewis. Description: MTT cytotoxicity, lung cancer Lewis. The settings on record: n = 6. In kind it is cell-based. The method, then: as §1
The subject of a further data set is colon cancer SW480. Kind of data set: MTT cytotoxicity, colon cancer SW480. In kind it is cell-based. The settings on record: n = 6. The method, then:
as §1

Data set [3] has as its system colon cancer SW480 cell line. Description: In vivo antitumor activity, colon cancer SW480 in nude mice (1). The conditions noted are these: SW480, 4 mg/kg, every other day, 4 times, tumor weighed after 10 days. From the text: The calculation formula of tumor inhabitation rate is: […]
In a further data set the test system is normal mice. Description: Acute toxic effect of platinum complex on normal mice (LD50). It is filed as in vivo, Kunming mice. The conditions noted are these: single intravenous administration in 5% glucose, 14 days observation, Bliss method. The method, then:
Test 1: Acute Toxic Effect of Platinum Complex on Normal Mice
Embodiment platinum compound was dissolved with 5% glucose solution. […] Mortality and toxicity were observed after administration.

For data set [4], the system named is colon cancer SW480 cell line. Description: In vivo antitumor activity, colon cancer SW480 in nude mice (2), dose series. The settings on record: 3 days, tumor weighed 24 hours after drug discontinuance.
The nature of another data set: Solubility in water. The settings on record: in water.
Data set [5] concerns lung cancer H292 cell line. Description: In vivo antitumor activity, lung cancer H292 in nude mice. The conditions noted are these: H292, 15 mg/kg, every 2 days, 4 times, end 30 days after inoculation.

Marks after values point to notes of the source that are not given here.

Regarding “2-(2-diethylamine ethyl)-malonic.cis-1,4-(trans-2,3-cyclobutyl)-butanediamine platinum (II) phosphate [compound 26]”, the IC50 in the data set on lung cancer H292 stood at 136 µM; in the data set on testis cell ST, 312 µM; with gastric cancer MGC803, 234 µM; in the data set with esophagus cancer ECA109 it was 163 µM. Also, the “tumor inhibition rate (%)” value in data set [1] was found to be 72.4 ± 16.78%.
With `CCCN(CCC)CCC1C(=O)[O][Pt]([NH2])([NH2])[O]C1=O.O=P(O)(O)O` [compound 7, 2-(2-di-n-propylamineethyl)-malonic-cis-diamino platinum (II) phosphate], the IC50 worked out at 124 µM with lung cancer H292, 75 µM in [2], 128 µM with lung cancer Lewis and 51 µM with colon cancer SW480. For the same compound, the “tumor inhibition rate (%) (x ±SD)” value in [3] is 28.5 ± 7.65 %.
“[2-(2-dimethylamine ethyl)-malonato].[cis-trans-1,2-diaminomethylcyclobutane]platinum (II) phosphate [compound 25]” showed an LD50 value with normal mice of 0.520 mmol/kg. Further, the IC50 in the data set on lung cancer H292 was 53 µM; in the data set on testis cell ST, 114 µM; in the data set with gastric cancer MGC803, 341 µM; with esophagus cancer ECA109, 196 µM. Moreover, the “tumor inhibition rate (%)” value in data set [1] is reported as 80.1 ± 9.65 %.
“[2-(3-di-n-propylamine propyl)-malonato].[cis-diamine] platinum (II) mesylate [compound 8]” returned an LD50 value in the data set with normal mice of 0.806 mmol/kg. The IC50 was determined as 201 µM in the data set with lung cancer H292, 49 µM in data set [2], 57 µM with lung cancer Lewis and 20 µM in the data set on colon cancer SW480. In addition, the “tumor inhibition rate (%) (x ±SD)” value was 29.7 ± 8.81 % in data set [3]; 40.4 ± 5.02 % in [4] (SW480, 3 mg/kg); 73.6 ± 9.18% in data set [4] (SW480, 5 mg/kg); 74.4 ± 12.25% in data set [4] (SW480, 10 mg/kg); 82.8 ± 10.07 % in [4] (SW480, 15 mg/kg).
`CCN(CC)CCC1C(=O)[O][Pt]2([NH]C3CCC(CC3)[NH]2)[O]C1=O.O=P(O)(O)O` (stereo not drawn) [compound 27, [2-(2-diethylamine ethyl)-malonato].[cis-1,4-cyclohexyldiamine] platinum (II) phosphate] showed an LD50 value with normal mice of 0.729 mmol/kg. The IC50 with lung cancer H292 stood at 158 µM; in the data set on testis cell ST, 360 µM; in the data set with gastric cancer MGC803, 453 µM; in the data set on esophagus cancer ECA109, 350 µM. In addition, the “tumor inhibition rate (%)” value in data set [1] was found to be 71.3 ± 10.54%. Moreover, the solubility in “Solubility in water” was determined as 145 mg/mL.
On to “[2-(2-amino ethyl)-malonato].[cis-(1,2-trans-cyclohexamethylene diamine)]platinum (II) phosphate [compound 9]”, for which the LD50 value in the data set with normal mice turned out to be 0.724 mmol/kg. For the same compound, the IC50 in the data set on lung cancer H292 was determined as 63 µM; in data set [2] it was 57 µM; with lung cancer Lewis it was 69 µM; in the data set with colon cancer SW480, 71 µM. Also, the “tumor inhibition rate (%)” value in [5] is listed as 79.2 ± 14.99 %. In “Solubility in water”, this compound came in with a solubility of 275 mg/mL.
Take “[2-(2-diethylamine ethyl)-malonato].[cis-1,3-(2,2-(4-oxacyclohexyl))-propyldiamine]platinum (II) phosphate [compound 28]”: in the data set on normal mice, the LD50 value stood at 0.767 mmol/kg. Besides, the IC50 in the data set on lung cancer H292 stood at 99 µM; in the data set with testis cell ST, 138 µM; in the data set on gastric cancer MGC803, 162 µM; in the data set on esophagus cancer ECA109, 256 µM. Moreover, the “tumor inhibition rate (%)” value in [1] is given as 73.3 ± 17.92%.
As to “[2-(2-ethylamine ethyl)-malonato].[cis-(1,2-trans-cyclohexamethylene diamine)]platinum (II) phosphate [compound 12]”, the LD50 value with normal mice is given as 0.609 mmol/kg. The IC50 in the data set on lung cancer H292 worked out at 241 µM; in data set [2], 15 µM; in the data set on lung cancer Lewis, 57 µM; with colon cancer SW480, 203 µM. In addition, the “tumor inhibition rate (%)” value in data set [5] is 76.3 ± 20.67*^ %. Besides, the solubility in the data set “Solubility in water” was determined as 221 mg/mL.
`N.N.[Cl][Pt][Cl]` [cisplatin, Cis-dichlorodiamminoplatinum, reference compound]: the “tumor inhibition rate (%) (x ±SD)” value in data set [4] (SW480, 3 mg/kg) came to 62.9 ± 9.01%; in data set [4] (SW480, 5 mg/kg), 71.1 ± 10.76%.
